± gives the expanded uncertainty stated by the source.
Settings: 101.33 kPa, Liquid; for speed of sound: Linear variable-path acoustic interferometer; for mass density: Vibrating tube method

| Structure (SMILES) | speed of sound (293.15 K) [m/s] | mass density (293.15 K) [kg/m3] | speed of sound (298.15 K) [m/s] | mass density (298.15 K) [kg/m3] | speed of sound (303.15 K) [m/s] | mass density (303.15 K) [kg/m3] | speed of sound (308.15 K) [m/s] | mass density (308.15 K) [kg/m3] |
| --- | --- | --- | --- | --- | --- | --- | --- | --- |
| CCn1cc[n+](C)c1.F[B-](F)(F)F [1-ethyl-3-methylimidazolium tetrafluoroborate] | 1631 ± 2.6 | 1283.89 ± 1.5 | 1619.4 ± 2.6 | 1279.91 ± 1.5 | 1607.6 ± 2.6 | 1276.26 ± 1.5 | 1596.3 ± 2.6 | 1272.07 ± 1.4 |
| Cc1ccccn1 [2-methylpyridine] | 1400.5 ± 2.5 | 944.401 ± 0.77 | 1380.1 ± 2.5 | 939.802 ± 0.77 | 1361 ± 2.5 | 935.117 ± 0.76 | 1339.9 ± 2.5 | 930.414 ± 0.76 |
| c1ccncc1 [pyridine] | 1442 ± 1.8 | 983.191 ± 0.23 | 1417.8 ± 1.8 | 978.249 ± 0.23 | 1398 ± 1.8 | 973.224 ± 0.23 | 1377.1 ± 1.8 | 968.166 ± 0.23 |

The remaining lines, values ahead:

| speed of sound (293.15 K) [m/s] | mass density (293.15 K) [kg/m3] | speed of sound (298.15 K) [m/s] | mass density (298.15 K) [kg/m3] | speed of sound (303.15 K) [m/s] | mass density (303.15 K) [kg/m3] | speed of sound (308.15 K) [m/s] | mass density (308.15 K) [kg/m3] | Structure (SMILES) |
| --- | --- | --- | --- | --- | --- | --- | --- | --- |
| 1445.9 ± 1.8 | 956.581 ± 0.23 | 1424 ± 1.8 | 952.002 ± 0.23 | 1404 ± 1.8 | 947.449 ± 0.23 | 1384 ± 1.8 | 942.831 ± 0.23 | Cc1cccnc1 [3-methylpyridine] |
| 1451.1 ± 1.8 | 955.099 ± 0.23 | 1431.5 ± 1.8 | 950.179 ± 0.23 | 1410.7 ± 1.8 | 945.413 ± 0.23 | 1389.9 ± 1.8 | 940.821 ± 0.23 | Cc1ccncc1 [4-methylpyridine] |

From the NIST ThermoML archive (doi:10.1016/j.jct.2012.07.007)
